17 molecules from patent US20020128232A1, “Heterocyclic angiogenesis inhibitors” (priority 2000, published 2002) can be followed below.

For this assay, the system named is rat aorta ring. Briefly: Rat aorta assay for angiogenesis inhibition (rat aorta ring model, micro-vessel growth scored). The format is cell-based. Conditions: for inhibition at 100 µg/mL / inhibition at 10 µg/mL / inhibition at 4 µg/mL / inhibition at 50 µg/mL / inhibition at 20 µg/mL: Rattus norvegicus. An excerpt:
The rat aorta ring model based on that described by Nicosia and Ottinetti (Nicosia, R. F. et al., Lab. Investigation 63: 115, 1990; Nicosia, R. F. et al., Cell. Dev. Bio. 26: 119-128, 1990), was used throughout the assay.
The agarose was made up as a 1.5% solution in distilled water and brought to the boil to form a clear solution which was poured into sterile 9 cm petri dishes, covered and allowed to cool and set.
Maintaining sterile conditions, agarose rings were obtained by punching two concentric circles, with sterile 10 and 17 mm hole punches, respectively, in the agarose gel. Using sterile forceps, the rings are removed and placed, three per well in each of the 6-well plates.
The MEM was prepared according to manufacturer's directions, but before filtering through a 0.22 μm filter, HEPES and L-glutamine were added to give 10 mM and 1 mM concentrations respectively with pH adjusted to 7.4. Eight hundred mL of this medium were filtered through a 0.2 μm filter along with the antibiotics (50 mg/L Gentamycin sulphate and 2.5 mg/L Amphotericin B) and 200 mL of FCS (to give 20%) to yield one liter of medium.
The aorta was removed from a 3-4 month male Copenhagen rat and transferred to a dissecting dish where it was cleaned and carefully stripped of the fibroadipose tissue surrounding it. Rings of 0.5 mm were cut, using a fresh scalpel blade, from the length of the aorta. These were kept under sterile conditions in a biohazard hood where they were washed 12 times with MEM.
Before transferring the aortic rings to the culture plate, the bottom of each agarose well was coated with 150 μL of clotting fibrinogen. Fibrinogen was made up as a […] solution in MEM, while Thrombin made up in distilled water to give a concentration of 50 U/mL. The fibrinogen (1 mL) and the thrombin (20 μL) reacted within 30 sec to form a solid gel.
The aortic rings were transferred to the 6-well plates, with one ring placed in the center of each agarose well. Fresh fibrinogen/thrombin was made up as before and 150 μL was used to seal in each aortic ring. The gels were rested for approximately 2 hours before the medium was added.
[…] The compounds were made up as 6 mg/mL solution in water or DMSO. The test solutions were added to each well with the medium.
Six mL of MEM were carefully added to each of three wells to become the controls. MEM, along with the test compounds were added to the remaining wells and all were covered and transferred to the CO2 Incubator at 37° C., where they were kept for the next 14 days.
However, by the fifth day, there were noticeable changes in the tissue. Micro-vessels were seen and scored. We have based the scoring method on that used by Liekens et al., (Liekins, S. et al., Oncol. Res. 9: 173-181, 1997) in which 0 meant no vessels and 10 meant maximum vessels; the score is then converted into a percentage inhibition of vessel growth.

Setting [1] is: 120 h, 100 μg/ml, day 5, read-out: Growth Inhibition Day 5 (%).
Where [2] appears, read: 264 h, 100 μg/ml, day 11, read-out: Growth Inhibition Day 11 (%).
Setting [3] is: 120 h, 10 μg/ml, day 5, read-out: Growth Inhibition Day 5 (%).
The mark [4] stands for this setting: 120 h, 50 μg/ml, day 5, read-out: Growth Inhibition Day 5 (%).
[5] abbreviates: 120 h, 20 μg/ml, day 5, read-out: Growth Inhibition Day 5 (%).
[6] abbreviates: 100 μg/ml, test slow to establish, read after 15 days (footnote *), read-out: Growth inhibition after 15 days.
The mark [7] stands for this setting: 264 h, 20 μg/ml, day 11, read-out: Growth Inhibition Day 11 (%).
The mark [8] stands for this setting: 264 h, 50 μg/ml, day 11, read-out: Growth Inhibition Day 11 (%).

Structures can show the parent of a compound that is named as a salt. Where two headings read alike, the source gives them in different places. Marks after values point to notes of the source that are not given here.

With `O=C(O)c1cccc(NC(=O)n2c(=O)[nH]c3ccccc32)c1` [Example 3, N-(3-Carboxyphenyl)-2,3-dihydro-2-oxo-1H-benzimidazole-1-carboxamide], the inhibition (usually the percentage by which the read-out fell short of the control) at 100 µg/mL is, setting by setting: under setting [1], 60%; under setting [2], 60%.

For the molecule `O=C(Nc1ccc(B(O)O)cc1)n1c(=O)[nH]c2ccccc21` [Example 28, N-(phenyl-4-boronic acid)-2,3-dihydro-2-oxo-1H-benzimidazole-1-carboxamide], the “Growth Inhibition Day 11 (%)” value was found to be 20% (4 μg/ml, day 11) and 20% (10 μg/ml, day 11).

For `O=C(Nc1cccc(B(O)O)c1)n1c(=O)[nH]c2ccccc21` [Example 2, N-(Phenyl-3-boronic acid)-2,3-dihydro-2-oxo-1H-benzimidazole-1-carboxamide], the “Growth Inhibition Day 5 (%)” value (4 μg/ml, day 5) turned out to be 50%; the “Growth Inhibition Day 5 (%)” value (20 μg/ml, day 5) is 100%; the “Growth Inhibition Day 5 (%)” value (50 μg/ml, day 5) stood at 100%. Besides, the “Growth Inhibition Day 11 (%)” value is, setting by setting: (4 μg/ml, day 11) 0%; (20 μg/ml, day 11) 100%; (50 μg/ml, day 11) 100%. In addition, where the note is “100 μg/ml, test slow to establish, read after 15 days (footnote *)”, the “Growth inhibition after 15 days” value is 100* %.

`O=C1NS(=O)(=O)c2ccc(NC(=O)n3c(=O)[nH]c4ccccc43)cc21` [Example 20, 2-oxo-2,3-dihydrobenzimidazole-1-carboxylic acid (1,1,3-trioxo-2,3-dihydro-1H-1λ^6-benzo[d]isothiazol-5-yl)amide]: the inhibition at 10 µg/mL is, setting by setting: under setting [3], 100%; (264 h, 10 μg/ml, day 11, read-out: Growth Inhibition Day 11 (%)) 70%.

`O=C(Nc1ccccc1)n1c(=S)[nH]c2ccccc21` [Example 11, 2-Thioxo-2,3-dihydrobenzoimidazole-1-carboxylic acid phenylamide]: the inhibition at 4 µg/mL (120 h, 4 μg/ml, day 5) stood at 0%. Moreover, the inhibition at 50 µg/mL under setting [4] amounted to 100%.

For `O=C(C1CCCN1)n1c(=O)[nH]c2ccccc21` (stereo not drawn) [Example 12, 1-(Pyrrolidine-2-carbonyl)-1,3-dihydrobenzoimidazol-2-one trifluoroacetic acid salt], the inhibition at 4 µg/mL (120 h, 4 μg/ml, day 5) stood at 50%. Moreover, the inhibition at 20 µg/mL under setting [5] was 70%.

For the molecule `O=C(O)Cc1ccc(NC(=O)n2c(=O)[nH]c3ccccc32)cc1` [Example 7, N-(4-Carboxymethylphenyl)-2,3-dihydro-2-oxo-1H-benzimidazole-1-carboxamide], under setting [6], the inhibition at 100 µg/mL worked out at 100%. The inhibition at 20 µg/mL was 80% under setting [5] and 0% under setting [7]. In addition, the inhibition at 50 µg/mL stood at 80% under setting [4] and 100% under setting [8].

For the setting “120 h, 4 μg/ml, day 5”, `C=CCNC(=O)n1c(=O)[nH]c2ccccc21` [Example 13, 2-Oxo-2,3-dihydrobenzoimidazole-1-carboxylic acid allylamide] returned an inhibition at 4 µg/mL of 0%. Moreover, the inhibition at 20 µg/mL under setting [5] is 20%.

For `O=C(O)c1ccccc1NC(=O)n1c(=O)[nH]c2ccccc21` [Example 5, N-(2-Carboxyphenyl)-2,3-dihydro-2-oxo-1H-benzimidazole-1-carboxamide], the inhibition at 100 µg/mL under setting [6] was 90%. In addition, the inhibition at 20 µg/mL reads like this: under setting [5], 0%; under setting [7], 0%. The inhibition at 50 µg/mL under setting [4] was found to be 10% and the inhibition at 50 µg/mL under setting [8] was 0%.

Take `O=C(Nc1ccc(OP(=O)(O)O)cc1)n1c(=O)[nH]c2ccccc21` [Example 26, Phosphoric acid mono-{4[(2-oxo-2,3-dihydrobenzimidazole-1-carbonyl)-amino]-phenyl} ester]: the inhibition at 10 µg/mL is, setting by setting: (120 h, read-out: Growth Inhibition Day 5 (%)) 90%; (264 h, read-out: Growth Inhibition Day 11 (%)) 40%.

Take `O=C(Nc1ccccc1)n1c(=O)[nH]c2cncnc21` [Example 14, 8-Oxo-7,8-dihydropurine-9-carboxylic acid phenylamide]: the inhibition at 4 µg/mL (120 h, 4 μg/ml, day 5) came out at 20%. Under setting [5], the inhibition at 20 µg/mL was found to be 40%. In addition, the inhibition at 50 µg/mL under setting [4] is 20%.

`O=C(O)c1ccc(NC(=O)n2c(=O)[nH]c3ccccc32)cc1` [Example 4, N-(4-Carboxyphenyl)-2,3-dihydro-2-oxo-1H-benzimidazole-1-carboxamide]: the inhibition at 100 µg/mL under setting [6] was found to be 100%. Also, the inhibition at 20 µg/mL runs as follows: under setting [5], 100%; under setting [7], 70%. In addition, the inhibition at 50 µg/mL is, setting by setting: under setting [4], 90%; under setting [8], 95%.

In the case of `CC(C)(C)c1ccc(NC(=O)n2c(=O)[nH]c3ccccc32)cc1` [Example 16, 2-Oxo-2,3-dihydrobenzoimidazole-1-carboxylic acid (4-t-butylphenyl)amide], under setting [3], the inhibition at 10 µg/mL worked out at 10%.

`O=C(O)c1cc(NC(=O)n2c(=O)[nH]c3ccccc32)cc(C(=O)O)c1` [Example 23, 5-[(2-oxo-2,3-dihydrobenzimidazole-1-carbonyl)-amino]isophthalic acid]: the inhibition at 10 µg/mL under setting [3] is 10%.

As to `O=C([O-])c1cccc(NC(=O)n2c(=O)[nH]c3ccccc32)c1.[Na+]` [Sodium salt of 3, N-(3-Carboxyphenyl)-2,3-dihydro-2-oxo-1H-benzimidazole-1-carboxamide Sodium Salt], the “Growth Inhibition Day 5 (%)” value (100 μg/ml, day 5) is given as 70%. Also, the “Growth Inhibition Day 11 (%)” value (100 μg/ml, day 11) is listed as 80%.

Take `O=C(Nc1ccccc1)n1c(=O)[nH]c2ccccc21` [Example 17, 2-Oxo-2,3-dihydrobenzimidazole-1-carboxylic acid phenylamide]: testing at 4 µg/mL (120 h, 4 μg/ml, day 5) gave an inhibition of 50%. For the same molecule, the inhibition at 20 µg/mL under setting [5] was determined as 30%. The inhibition at 50 µg/mL under setting [4] came out at 95%.

Regarding `CCOC(=O)c1cccc(NC(=O)n2c(=O)[nH]c3ccccc32)c1` [Example 9, N-(3-Ethoxycarbonylphenyl)-2,3-dihydro-2-oxo-1H-benzimidazole-1-carboxamide], the inhibition at 100 µg/mL runs as follows: under setting [1], 70%; under setting [2], 10%.
